Measurements: patent US20070043018A1, “2"-Hydroxynicotianamine, process for producing the same and angiotensin converting enzyme inhibitor, hypotensive drug and health food” (JAPAN SCIENCE AND TECHNOLOGY AGENCY, priority 2003, published 2007)

Key:
[1] = biological target: T1, ACE from the lung of rabbit (Oryctolagus cuniculus, UniProt P12822); assay: Measurement of ACE inhibitory activity by Cushman and Cheung method; assay type: biochemical; settings: substrate hippuryl-L-histidyl-L-leucine, pH 8.3, 37° C. for 30 minutes, no pre-incubation; determined by extrapolation on the graph; read-out: concentration that indicates 50% inhibition (IC50) of ACE
T1 construct: ACE used was a freeze dry product of ACE from the lung of rabbit (manufactured by Sigma); purchased Sigma; host or cells: rabbit lung tissue
T1 sequence (P12822 34-1310): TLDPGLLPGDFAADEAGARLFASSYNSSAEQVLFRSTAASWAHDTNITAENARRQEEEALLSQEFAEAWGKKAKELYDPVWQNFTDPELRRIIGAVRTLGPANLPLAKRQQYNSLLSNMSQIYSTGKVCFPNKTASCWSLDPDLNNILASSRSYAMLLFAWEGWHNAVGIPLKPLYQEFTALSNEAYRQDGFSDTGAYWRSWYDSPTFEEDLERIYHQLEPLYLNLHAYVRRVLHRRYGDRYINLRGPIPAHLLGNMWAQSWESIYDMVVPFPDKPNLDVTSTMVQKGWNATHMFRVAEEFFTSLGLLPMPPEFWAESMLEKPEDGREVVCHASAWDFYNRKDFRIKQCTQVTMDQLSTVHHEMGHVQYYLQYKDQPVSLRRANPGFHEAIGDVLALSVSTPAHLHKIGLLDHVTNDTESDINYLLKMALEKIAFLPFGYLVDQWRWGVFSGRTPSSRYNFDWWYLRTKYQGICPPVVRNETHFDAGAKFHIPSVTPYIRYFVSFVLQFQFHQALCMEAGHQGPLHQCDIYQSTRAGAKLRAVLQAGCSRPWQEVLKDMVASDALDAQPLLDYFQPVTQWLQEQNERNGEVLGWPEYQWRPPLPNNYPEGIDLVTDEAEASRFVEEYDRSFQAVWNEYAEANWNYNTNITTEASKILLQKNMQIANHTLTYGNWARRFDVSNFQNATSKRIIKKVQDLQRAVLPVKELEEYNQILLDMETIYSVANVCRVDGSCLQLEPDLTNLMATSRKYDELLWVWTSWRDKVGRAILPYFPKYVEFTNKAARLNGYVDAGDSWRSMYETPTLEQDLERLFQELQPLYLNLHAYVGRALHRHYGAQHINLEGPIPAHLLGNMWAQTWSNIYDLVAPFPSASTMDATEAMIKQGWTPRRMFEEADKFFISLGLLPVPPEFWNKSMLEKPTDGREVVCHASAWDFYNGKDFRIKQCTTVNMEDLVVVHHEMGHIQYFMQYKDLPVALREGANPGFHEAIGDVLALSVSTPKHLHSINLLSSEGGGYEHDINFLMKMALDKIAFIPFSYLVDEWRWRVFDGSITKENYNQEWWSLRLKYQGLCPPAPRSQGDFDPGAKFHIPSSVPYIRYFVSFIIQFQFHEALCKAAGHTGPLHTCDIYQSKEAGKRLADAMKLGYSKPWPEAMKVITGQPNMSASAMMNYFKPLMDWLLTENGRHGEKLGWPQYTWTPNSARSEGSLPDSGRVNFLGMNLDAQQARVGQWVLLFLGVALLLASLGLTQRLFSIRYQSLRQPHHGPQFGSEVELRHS
From the text: The separation and purification process comprises the steps of: injecting the extract solution obtained in the extraction process into a column filled with the cation exchange resin or anion exchange resin by a known method; washing the column with water and eluting the column with the aqueous electrolyte solution as the eluant; and measuring the ACE inhibitory activity of the fractions obtained to collect the fractions having the ACE inhibitory activity. Known methods such as the method of Cushman and Cheung may be used for measuring the ACE inhibitory activity.
<Measurement of ACE Inhibitory Activity>
The ACE inhibitory activity was measured as follows by Cushman and Cheung method. […]
After mixing the compositions of the reaction solution (i), (ii), (iii), and (iv), enzyme solution (v) was added to the mixed solution without pre-incubation, and the solution was allowed to react (incubate) at 37° C. for 30 minutes. […] The extract solution was evaporated to dryness using a centrifugal evaporator, and the residue was dissolved in 1 ml of water to measure the concentration of the extract by absorbance at 228 nm using a spectrophotometer. The measured absorbance was defined as ODs (ODs1, ODs2 and ODs3) for the measurements using samples solutions 1, 2 and 3, respectively. […]

[2] = Solubility (other chemical and physical properties); assay type: physicochemical; settings: in water, dilute acid and dilute alkali
Protocol: While the novel substance of the invention is positive to the ninhydrin reaction, the reaction is suppressed by Cu^2+ ions. […] Almost no usual amino acids are detected when amino acids are detected with an automatic amino acid analyzer after decomposing the novel substance of the invention with 6N HCl at 110° C. for 16 hours, and the decomposition product has a complicated composition. The novel substance of the invention has a melting point of 275 to 280° C. and a specific rotation [α]D^23.6 of −40° (c=0.4 g/100 ml; solvent=water) and [α]D^23.6 of −34.5° (c=0.2 g/100 ml/; solvent=1N HCl).

SMILES | IC50 [1] | solubility [2]
N[C@@H](CCN[C@@H](CCN1CC[C@H]1C(=O)O)C(=O)O)C(=O)O [nicotianamine, Nicotianamine] | 0.085 µM | –
N[C@H](C(=O)O)C(O)CN[C@@H](CCN1CC[C@H]1C(=O)O)C(=O)O (stereo partly drawn) [2″-hydroxynicotianamine] | 0.08 µM | soluble in water, dilute acid and dilute alkali
